In US5756491A, “Antiviral cobalt-organic compounds” (priority 1991, dated 1998):

Columns and labels:
[1] = tested on: human foreskin fibroblast (HFF) cell monolayers; test: Toxicity effects controls: sham-inoculated compound-treated HFF monolayers; format: cell-based; as to Toxicity effects: key: +: toxic; -: no toxicity; ±: mild toxicity; T: toxicity effects interfered with CPE rating
Source text: With sufficient stirring, all the compounds completely dissolved.
In the tables, the symbols have the meaning indicated: […]

RE strain HSV-1 = test: Topical efficacy in RE strain HSV-1-induced stromal keratitis in the rabbit; format: in vivo, NZW rabbit; settings: for efficacy ranking, average stromal disease scores: Example 4, FIG. 2
Method: The following examples describe topical ocular evaluation of the inventive compounds during RE strain HSV-1-induced stromal keratitis in the rabbit. These evaluations included analysis of the topical efficacy of both the inventive compounds alone, or, in certain instances, in combination with trifluorothymidine (TFT). The evaluation was carried out by the combined analysis of both clinical and virological (HSV-1 recovery) parameters. The specified number of NZW rabbits (1.5-2.0 kg) were used. Animals were received at least two days prior to inoculation to allow them to accommodate to the conditions in the vivarium facility. This conditioning of the animals prior to inoculation minimizes animal variability. After the accommodation, the animals received a slit-lamp examination to exclude any animals with pre-existing anterior segment ocular defects. Animals were bi-laterally inoculated by intrastromal injection of 10^5 PFU RE strain HSV-1. The animals were then replaced individually into cages. On day number three post-inoculation (PI), the animals were evaluated by slit-lamp microscopy. Corneal stromal, iris and conjunctival disease were graded on an increasing scale of severity from 0+ to 4+. After evaluation, the animals were divided into a specified number of groups each containing an equal number of animals based on a matched corneal stromal involvement. Topical therapy was initiated immediately after animal groupings. All animals received daily slit-lamp evaluations from day 3 through 7 PI. The ocular HSV-1 induced disease severity was recorded daily. […] Differences in disease resolution and development of stromal alterations are statistically analyzed. Virus recovery during and after topical therapy was compared. The topical efficacy of Compounds 23 and 96 on stromal HSV-1 infection in the rabbit model of stromal keratitis was evaluated. All animals received daily slit lamp evaluations from day 3 through day 7 and on days 9 and 10 PI. The ocular HSV-1-induced disease severity was recorded daily. The topical efficacy of Compounds 23, 96 and 82 on stromal HSV-1 infection in the rabbit model of stromal keratitis was evaluated. All animals received daily slit lamp evaluations for day 3 through day 7 PI. The ocular HSV-1-induced disease severity was recorded daily. The topical efficacy of Compounds 23 and 96 in combination with TFT on stromal HSV-1 infection in the rabbit model of stromal keratitis was evaluated. Groups 1, 2 and 3 each have 5 animals for a total of 10 eyes per combination therapy. This allowed minimization of individual animal variability and performance of a statistical analysis on the results of the combination therapies. Groups 3, 4 and 5 have 2 animals each. These single-agent therapies were used to verify previously reported data on the efficacy of these compounds. The compounds are used at a lower frequency of delivery to match the dosing regimen of the combination-agent group. Consequently, the study also provides comparative information on Compounds 23 and 96 as a lower frequency of topical administration (4 times per day vs. 9 times per day in previous studies).

VZV = test: In vitro assay with VZV on HFF monolayers; format: cell-based; settings: for virucidal efficacy (VZV titer): Table 20, 7 days PI
Method: VZV was grown to a CPE level in vitro assays with VZV of 3-4+ on HFF cell monolayers. The VZV was scraped from the flask, centrifuged and the cell pellet was resuspended in 10 ml of complete medium. One hundred to 200 μl of the VZV cell associated inoculum was inoculated onto confluent HFF cell monolayers by absorption for 60 minutes at 37° C. After absorption of the virus, the inoculum was aspirated from the cell monolayers.
The VZV-infected monolayers were rehydrated with medium containing the appropriate concentrations of compounds to be tested. All monolayers were incubated at 37° C. Development of VZV cytopathology was monitored daily for 7 days by inverted light microscopy. Titers were calculated by multiple regression analysis.
Sham-inoculated, non-treated HFF cell monolayers were included among with the drug-treated monolayers as cell monolayer controls.
VZV inoculated, non-treated HFF monolayers were included as positive controls.

HFF cells = test: Neutral red uptake toxicity; format: cell-based, human; settings: stationary cells
[2] = Method: A stock solution of each compound to be tested at a concentration of 5 mg/ml was prepared. The stock solution was serially diluted in Hank's Balanced Salt Solution (HBSS) to obtain final drug concentrations of 5, 2, 1, 0.5, 0.1, 0.01, 0.001 and 0.0001 mg/ml. […] In such cases, the highest dissolved concentration that could be obtained was utilized.
Concentrations of compounds 93, 96, and 23 were prepared as follows: A stock solution of each compound at a concentration of 5 mg/ml was made. This stock solution was serially diluted in Hanks Balanced Salt Solution to obtain final drug concentrations of: 5, 2, 1, 0.5, 0.1, 0.01, 0.001, and 0.0001 mg/ml. Five hundred μl of each drug concentration were added to triplicate infected monolayers.

[3] = Experiment 1 (Table 1), 24 h PI, 0.001 mg/ml
[4] = Experiment 1 (Table 1), 24 h PI, 0.01 mg/ml
[5] = Experiment 1 (Table 1), 24 h PI, 0.1 mg/ml
[6] = Experiment 1 (Table 1), 24 h PI, 1 mg/ml
[7] = Experiment 1 (Table 1), 48 h PI, 0.001 mg/ml
[8] = Experiment 1 (Table 1), 48 h PI, 0.01 mg/ml
[9] = Experiment 1 (Table 1), 48 h PI, 0.1 mg/ml
[10] = Experiment 6 (Table 15), 48 h, 0.001 mg/ml
[11] = Experiment 6 (Table 15), 48 h, 0.01 mg/ml
[12] = 0.1 mg/ml, toxicity observation questionable

Which results are given for `CC([O-])=CC(C)=NCCN=C(C)C=C(C)[O-].[Cl-].[Co+3].c1c[nH]cn1.c1c[nH]cn1` [Compound 82]?
toxicity effects [1, 3]: -; toxicity effects [1, 4]: -; toxicity effects [1, 5]: -; toxicity effects [1, 6]: -; toxicity effects ([1]; Experiment 1 (Table 1), 24 h PI, 10 mg/ml): -; toxicity effects [1, 7]: -; toxicity effects [1, 8]: -; toxicity effects [1, 9]: -; toxicity effects ([1]; Experiment 1 (Table 1), 48 h PI, 1 mg/ml): -; toxicity compared with 23 and 76 ([1]; Experiment 1 comment, less than the observed toxicity of 23 and 76): one order of magnitud; efficacy relative to Compounds 23 and 96 (RE strain HSV-1; Example 4): intermediate between Compounds 23 and 96; reduction of stromal disease development (RE strain HSV-1; Example 4, 1 mg/ml, severity <0.5+ on day 3 PI): effective in reducing the development of stromal disease; efficacy ranking, average stromal disease scores (RE strain HSV-1): Compound 96>Compound 82>Compound 23>TFT=Placebo; effect on development or progression of stromal disease (RE strain HSV-1; Example 4, severity >0.75): did not alter the development or progression of stromal disease

Which toxicity effects [1, 3] does the source give for `CC1=CC(C)=[N+]2CC[N+]3=C(C)C=C(C)[O][Co-3]23([NH3+])([NH3+])[O]1.[Cl-]` [Compound 23, reference compound] here?
Its toxicity effects is “-”.

What about the toxicity effects [1, 4] of the same compound?
Its toxicity effects is “-”.

And the toxicity effects [1, 5]?
Its toxicity effects is “-”.

What about the toxicity effects [1, 6] of the same compound?
Its toxicity effects is “-”.

What about the toxicity effects [1, 7] of the same compound?
Its toxicity effects is “-”.

And the toxicity effects [1, 8]?
Its toxicity effects is “-”.

And the toxicity effects [1, 9]?
The toxicity effects was “-”.

And the toxicity effects ([1]; Experiment 1 (Table 1), 48 h PI, 10 mg/ml)?
Its toxicity effects is “+”.

What about the toxicity effects ([1]; Experiment 3 (Table 7), 24 h PI, 0.001 mg/ml) of the same compound?
Its toxicity effects is “-”.

What about the toxicity effects ([1]; Experiment 3 (Table 7), 24 h PI, 0.01 mg/ml) of the same compound?
The toxicity effects was “-”.

What about the toxicity effects ([1]; Experiment 3 (Table 7), 24 h PI, 0.1 mg/ml) of the same compound?
The toxicity effects was “-”.

And the toxicity effects ([1]; Experiment 3 (Table 7), 48 h PI, 0.001 mg/ml)?
Its toxicity effects is “-”.

What about the toxicity effects ([1]; Experiment 3 (Table 7), 48 h PI, 0.01 mg/ml) of the same compound?
The toxicity effects was “-”.

And the toxicity effects ([1]; Experiment 3 (Table 7), 48 h PI, 0.1 mg/ml)?
Its toxicity effects is “-”.

And the toxicity effects [1, 10]?
Its toxicity effects is “-”.

And the toxicity effects [1, 11]?
The toxicity effects was “-”.

And the toxicity effects ([1]; Experiment 6 (Table 15), 48 h, 0.1 mg/ml)?
The toxicity effects was “-”.

What about the toxicity effects ([1]; Experiment 6 (Table 15), 48 h, 0.5 mg/ml) of the same compound?
The toxicity effects was “-”.

And the toxicity effects ([1]; Experiment 6 (Table 15), 48 h, 1 mg/ml)?
Its toxicity effects is “-”.

What about the “efficacy ranking during stromal HSV-1 infection” value (RE strain HSV-1; Example 3, all eyes, FIG. 1, 1 mg/ml (TFT 0.1%), 9x/day, 5 days) of the same compound?
The value was “Compound 96>>Compound 23>TFT>Placebo”.

What about the “efficacy vs TFT therapy” value (RE strain HSV-1; Example 3, days 7, 9 and 10 PI) of the same compound?
The value was “superior to TFT therapy”.

What about the “efficacy ranking, average stromal disease scores” value (RE strain HSV-1) of the same compound?
Its value is “Compound 96>Compound 82>Compound 23>TFT=Placebo”.

And the “effect on stromal disease severity/progression” value (RE strain HSV-1; Example 5, FIG. 5, initial stromal disease <0.5 on day 3 PI)?
Its value is “slowed the progression of stromal disease”.

And the “virucidal efficacy (VZV titer)” value (VZV; [12])?
Its value is “T?”.

And the “virucidal efficacy (VZV titer)” value (VZV; 0.5 mg/ml)?
The value was 0 PFU/ml.

What about the “virucidal efficacy (VZV titer)” value (VZV; 1 mg/ml) of the same compound?
The value was 0 PFU/ml.

And the “virucidal efficacy (VZV titer)” value (VZV; 2 mg/ml)?
Its value is 0 PFU/ml.

And the “virucidal efficacy (VZV titer)” value (VZV; 5 mg/ml)?
The value was 0 PFU/ml.

What about the “toxicity IC50, neutral red uptake” value (HFF cells) of the same compound?
Its value is 11.5 MCG/ML.

With `CC(=NCCN=C(C)C(Cl)=C(C)[O-])C(Cl)=C(C)[O-].[Br-].[Co+3].c1c[nH]cn1.c1c[nH]cn1` [Compound 93] as the compound, how does the toxicity effects ([1]; Experiment 4 (Table 10), 24 h, 0.001 mg/ml) read?
Its toxicity effects is “-”.

And the toxicity effects ([1]; Experiment 4 (Table 10), 24 h, 0.01 mg/ml)?
The toxicity effects was “-”.

What about the toxicity effects ([1]; Experiment 4 (Table 10), 24 h, 0.1 mg/ml) of the same compound?
Its toxicity effects is “-”.

And the toxicity effects ([1]; Experiment 4 (Table 10), 24 h, 0.5 mg/ml)?
The toxicity effects was “-”.

What about the toxicity effects ([1]; Experiment 4 (Table 10), 24 h, 1 mg/ml) of the same compound?
Its toxicity effects is “-”.

And the toxicity effects ([1]; Experiment 4 (Table 10), 48 h, 0.001 mg/ml)?
Its toxicity effects is “-”.

What about the toxicity effects ([1]; Experiment 4 (Table 10), 48 h, 0.01 mg/ml) of the same compound?
Its toxicity effects is “-”.

And the toxicity effects ([1]; Experiment 4 (Table 10), 48 h, 0.5 mg/ml)?
The toxicity effects was “-”.

And the toxicity effects ([1]; Experiment 4 (Table 10), 48 h, 1 mg/ml)?
Its toxicity effects is “-”.

What about the toxicity effects [1, 10] of the same compound?
The toxicity effects was “-”.

What about the toxicity effects [1, 11] of the same compound?
Its toxicity effects is “-”.

And the “toxicity to HFF monolayers (comment)” value ([1]; Experiment 6 comment, more pronounced at 0.5 and 0.1 mg/ml, cell rounding, detaching, granularity)?
The value was “toxicity observed”.

And the “virucidal efficacy (VZV titer)” value (VZV; 0.001 mg/ml)?
Its value is 10^4 PFU/ml.

And the “virucidal efficacy (VZV titer)” value (VZV; 0.01 mg/ml)?
Its value is 10^2 PFU/ml.

What about the “virucidal efficacy (VZV titer)” value (VZV; [12]) of the same compound?
The value was “T?”.

What about the “effective virucidal concentration IC50” value (VZV; Table 21, VZV) of the same compound?
Its value is 10 µg/mL.

What about the “solubility at 5 and 2 mg/ml” value [2] of the same compound?
Its value is “not to be soluble”.

What about the “toxicity IC50, neutral red uptake” value (HFF cells) of the same compound?
The value was 27.3 MCG/ML.
